Measured values reported in patent US11739078B2, “Methods of inhibiting kinases” (INSILICO MEDICINE IP LIMITED, priority 2019, dated 2023).
Read-outs that look alike come from different tables or passages of the source.

Legend:
TNIK = TNIK (Homo sapiens (Human), UniProt Q9UKE5); experiment: TNIK enzymatic assay (radiometric kinase inhibition); type: biochemical
Description: The compounds were studied for function as TNIK inhibitors to generate the data of Table 1. […] (specific activity and concentration as required). The reaction is initiated by the addition of the Mg/ATP mix. After incubation for 40 minutes at room temperature, the reaction is stopped by the addition of phosphoric acid to a concentration of 0.5%.

MAP4K4 (h) = MAP4K4 (h) (Homo sapiens (Human), UniProt O95819); experiment: MAP4K4 in vitro kinase assay (radiometric); type: biochemical; details: read-out: MAP4K4_IC50
Description: (specific activity and concentration as required). The reaction is initiated by the addition of the Mg/ATP mix. After incubation for 40 minutes at room temperature, the reaction is stopped by the addition of phosphoric acid to a concentration of 0.5%.

[1] = TNIK enzymatic assay, Table 1, read-out: IC50

MAP4K4 (h), sequence (O95819 whole entry): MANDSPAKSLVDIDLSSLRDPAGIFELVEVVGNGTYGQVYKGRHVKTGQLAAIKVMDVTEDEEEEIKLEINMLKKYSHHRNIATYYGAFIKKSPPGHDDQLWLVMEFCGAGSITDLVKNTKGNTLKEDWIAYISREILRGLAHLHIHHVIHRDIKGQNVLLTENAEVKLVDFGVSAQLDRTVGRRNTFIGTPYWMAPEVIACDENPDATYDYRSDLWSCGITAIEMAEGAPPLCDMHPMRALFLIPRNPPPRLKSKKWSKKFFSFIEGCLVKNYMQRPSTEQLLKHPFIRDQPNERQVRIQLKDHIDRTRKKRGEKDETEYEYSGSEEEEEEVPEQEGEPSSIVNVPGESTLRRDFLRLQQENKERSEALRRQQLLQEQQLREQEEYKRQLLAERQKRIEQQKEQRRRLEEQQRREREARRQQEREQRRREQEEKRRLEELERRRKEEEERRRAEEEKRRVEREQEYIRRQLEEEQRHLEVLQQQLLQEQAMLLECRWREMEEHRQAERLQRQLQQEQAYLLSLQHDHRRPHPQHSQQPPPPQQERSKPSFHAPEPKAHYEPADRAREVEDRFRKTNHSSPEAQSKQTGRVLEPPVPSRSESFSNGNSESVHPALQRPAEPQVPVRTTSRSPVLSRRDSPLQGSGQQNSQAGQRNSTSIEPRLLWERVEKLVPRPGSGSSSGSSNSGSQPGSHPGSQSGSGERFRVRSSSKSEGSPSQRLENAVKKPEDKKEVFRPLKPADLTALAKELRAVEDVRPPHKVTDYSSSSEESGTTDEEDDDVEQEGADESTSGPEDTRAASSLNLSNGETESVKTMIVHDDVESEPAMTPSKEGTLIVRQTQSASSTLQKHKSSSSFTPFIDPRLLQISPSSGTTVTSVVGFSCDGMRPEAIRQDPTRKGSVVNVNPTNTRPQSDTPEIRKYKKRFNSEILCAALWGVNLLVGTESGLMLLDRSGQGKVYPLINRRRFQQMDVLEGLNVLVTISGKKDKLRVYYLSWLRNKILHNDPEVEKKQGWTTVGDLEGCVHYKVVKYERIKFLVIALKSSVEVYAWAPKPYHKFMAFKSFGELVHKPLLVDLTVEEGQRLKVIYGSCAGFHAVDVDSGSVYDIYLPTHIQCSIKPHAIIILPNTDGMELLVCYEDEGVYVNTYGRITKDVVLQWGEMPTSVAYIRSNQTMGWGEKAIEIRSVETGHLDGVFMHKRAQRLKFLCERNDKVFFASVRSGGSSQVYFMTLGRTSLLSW
TNIK, sequence (Q9UKE5 whole entry): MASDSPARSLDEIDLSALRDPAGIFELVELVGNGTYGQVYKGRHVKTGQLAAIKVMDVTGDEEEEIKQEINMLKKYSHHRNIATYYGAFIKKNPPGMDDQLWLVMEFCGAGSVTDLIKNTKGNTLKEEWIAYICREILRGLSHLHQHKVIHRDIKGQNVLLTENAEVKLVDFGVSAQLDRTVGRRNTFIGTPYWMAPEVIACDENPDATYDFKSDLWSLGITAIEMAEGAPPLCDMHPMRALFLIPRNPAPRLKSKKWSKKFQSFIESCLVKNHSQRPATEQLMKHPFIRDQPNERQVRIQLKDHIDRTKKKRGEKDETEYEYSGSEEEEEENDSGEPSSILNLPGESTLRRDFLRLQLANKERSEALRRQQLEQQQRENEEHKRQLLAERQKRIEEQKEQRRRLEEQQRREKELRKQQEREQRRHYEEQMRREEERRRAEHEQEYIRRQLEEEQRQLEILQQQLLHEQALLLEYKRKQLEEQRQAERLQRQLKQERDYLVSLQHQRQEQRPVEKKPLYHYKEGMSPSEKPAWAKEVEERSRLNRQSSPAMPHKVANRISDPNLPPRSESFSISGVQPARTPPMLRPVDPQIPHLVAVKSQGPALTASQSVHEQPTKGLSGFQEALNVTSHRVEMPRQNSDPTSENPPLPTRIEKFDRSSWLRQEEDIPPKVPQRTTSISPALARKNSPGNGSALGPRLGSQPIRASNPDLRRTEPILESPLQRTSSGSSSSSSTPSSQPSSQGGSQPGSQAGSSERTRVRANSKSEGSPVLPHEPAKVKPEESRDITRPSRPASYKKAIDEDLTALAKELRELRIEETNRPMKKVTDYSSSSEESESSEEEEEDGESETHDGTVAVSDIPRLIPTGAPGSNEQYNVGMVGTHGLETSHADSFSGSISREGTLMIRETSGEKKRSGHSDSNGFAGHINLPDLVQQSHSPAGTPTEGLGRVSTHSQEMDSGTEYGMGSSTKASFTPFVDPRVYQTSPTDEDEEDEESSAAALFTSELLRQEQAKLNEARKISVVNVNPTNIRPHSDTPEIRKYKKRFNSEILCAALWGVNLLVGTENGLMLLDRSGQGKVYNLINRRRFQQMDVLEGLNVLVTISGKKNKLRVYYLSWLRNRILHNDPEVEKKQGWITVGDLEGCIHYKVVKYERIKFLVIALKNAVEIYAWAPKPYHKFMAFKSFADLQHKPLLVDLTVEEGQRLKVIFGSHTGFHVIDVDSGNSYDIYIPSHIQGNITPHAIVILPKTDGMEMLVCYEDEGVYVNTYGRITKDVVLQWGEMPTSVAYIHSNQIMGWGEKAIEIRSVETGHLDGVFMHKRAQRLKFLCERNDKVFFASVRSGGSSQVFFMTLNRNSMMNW

SMILES	IC50 (TNIK; [1])	IC50 (TNIK; read-out: TNIK_IC50)	IC50 (MAP4K4 (h))
O=C(Nc1ccc(F)cc1F)c1ccc(-c2c(-c3ccc(F)cc3)ncn2C2CCCCC2)o1 [Compound 57, 5-(1-cyclohexyl-4-(4-fluorophenyl)-1H-imidazol-5-yl)-N-(2,4-difluorophenyl)furan-2-carboxamide]	38 nM	38 nM	111 nM
O=C(Nc1cc[nH]c(=O)c1)c1ccc(-c2c(-c3ccc(F)cc3)ncn2C2COC[C@@H]2F)o1 (mixture of isomers) [Compound A-57, rac-5-(4-(4-fluorophenyl)-1-((4R)-4-fluorotetrahydrofuran-3-yl)-1H-imidazol-5-yl)-N-(2-oxo-1,2-dihydropyridin-4-yl)furan-2-carboxamide]		1160 nM	
COc1ccc(NC(=O)c2ccc(-c3c(-c4ccc(F)cc4)ncn3C3CCCCC3)o2)cc1OC [Compound 52, 5-(1-cyclohexyl-4-(4-fluorophenyl)-1H-imidazol-5-yl)-N-(3,4-dimethoxyphenyl)furan-2-carboxamide]	60 nM	60 nM	104 nM
O=C(Nc1ccc(F)c(F)c1)c1ccc(-c2c(-c3ccc(F)cc3)ncn2C2CCCC2)o1 [Compound 41, 5-(1-cyclopentyl-4-(4-fluorophenyl)-1H-imidazol-5-yl)-N-(3,4-difluorophenyl)furan-2-carboxamide]	180 nM	180 nM	639 nM
Cc1ccc(-c2ncn(C3CCCCC3)c2-c2ccc(C(=O)Nc3ccc(F)cc3)o2)cc1 [Compound 8, 5-(1-cyclohexyl-4-(p-tolyl)-1H-imidazol-5-yl)-N-(4-fluorophenyl)furan-2-carboxamide]	4450 nM	4450 nM	> 1000 nM
COc1cccc(NC(=O)c2ccc(-c3c(-c4ccc(F)cc4)ncn3C3CCCCC3)o2)c1 [Compound 53, 5-(1-cyclohexyl-4-(4-fluorophenyl)-1H-imidazol-5-yl)-N-(3-methoxyphenyl)furan-2-carboxamide]	138 nM	138 nM	244 nM
Cc1ccc(-c2ncn(C3CCCCC3)c2-c2ccc(C(=O)Nc3ccccc3F)o2)cc1 [Compound 7, 5-(1-cyclohexyl-4-(p-tolyl)-1H-imidazol-5-yl)-N-(2-fluorophenyl)furan-2-carboxamide]	1510 nM	1510 nM	> 1000 nM
Cc1ccc(NC(=O)c2ccc(-c3c(-c4ccc(F)cc4)ncn3C3CCCC3)o2)cc1Cl [Compound 30, N-(3-chloro-4-methylphenyl)-5-(1-cyclopentyl-4-(4-fluorophenyl)-1H-imidazol-5-yl)furan-2-carboxamide]	95 nM	95 nM	888 nM
Cc1ccc(NC(=O)c2ccc(-c3c(-c4ccc(F)cc4)ncn3C3CCCC3)o2)cc1F [Compound 40, 5-(1-cyclopentyl-4-(4-fluorophenyl)-1H-imidazol-5-yl)-N-(3-fluoro-4-methylphenyl)furan-2-carboxamide]	102 nM	102 nM	243 nM
CSc1cccc(NC(=O)c2ccc(-c3c(-c4ccc(F)cc4)ncn3C3CCCC3)o2)c1 [Compound 36, 5-(1-cyclopentyl-4-(4-fluorophenyl)-1H-imidazol-5-yl)-N-(3-(methylthio)phenyl)furan-2-carboxamide]	110 nM	110 nM	326 nM
O=C(Nc1ccc(Cl)cc1F)c1ccc(-c2c(-c3ccc(F)cc3)ncn2C2CCCCC2)o1 [Compound 76, N-(4-chloro-2-fluorophenyl)-5-(1-cyclohexyl-4-(4-fluorophenyl)-1H-imidazol-5-yl)furan-2-carboxamide]	42 nM	42 nM	70.3 nM
O=C(Nc1ccc(Cl)cc1)c1ccc(-c2c(-c3ccc(F)cc3)ncn2C2CCCC2)o1 [Compound 15, N-(4-chlorophenyl)-5-(1-cyclopentyl-4-(4-fluorophenyl)-1H-imidazol-5-yl)furan-2-carboxamide]	101 nM	101 nM	116 nM

Continued, values first:

IC50 (TNIK; [1])	IC50 (TNIK; read-out: TNIK_IC50)	IC50 (MAP4K4 (h))	SMILES
15 nM	15 nM	34.6 nM	CC(=O)Nc1ccc(NC(=O)c2ccc(-c3c(-c4ccc(F)cc4)ncn3C3CCCCC3)o2)cc1 [Compound 78, N-(4-acetamidophenyl)-5-(1-cyclohexyl-4-(4-fluorophenyl)-1H-imidazol-5-yl)furan-2-carboxamide]
30 nM	30 nM	97.6 nM	O=C(Nc1ccc(F)cc1F)c1ccc(-c2c(-c3ccc(F)cc3)ncn2C2CCCC2)o1 [Compound 1, 5-(1-cyclopentyl-4-(4-fluorophenyl)-1H-imidazol-5-yl)-N-(2,4-difluorophenyl)furan-2-carboxamide]
214 nM	214 nM	> 1000 nM	Cc1cccc(C)c1NC(=O)c1ccc(-c2c(-c3ccc(F)cc3)ncn2C2CCCC2)o1 [Compound 21, 5-(1-cyclopentyl-4-(4-fluorophenyl)-1H-imidazol-5-yl)-N-(2,6-dimethylphenyl)furan-2-carboxamide]
27 nM	27 nM	62.2 nM	COc1ccc(C)cc1NC(=O)c1ccc(-c2c(-c3ccc(F)cc3)ncn2C2CCCCC2)o1 [Compound 77, 5-(1-cyclohexyl-4-(4-fluorophenyl)-1H-imidazol-5-yl)-N-(2-methoxy-5-methylphenyl)furan-2-carboxamide]
326 nM	326 nM	300 nM	CCc1cccc(NC(=O)c2ccc(-c3c(-c4ccc(F)cc4)ncn3C3CCCCC3)o2)c1 [Compound 74, 5-(1-cyclohexyl-4-(4-fluorophenyl)-1H-imidazol-5-yl)-N-(3-ethylphenyl)furan-2-carboxamide]
483 nM	483 nM	> 1000 nM	CCOC(=O)c1cccc(NC(=O)c2ccc(-c3c(-c4ccc(F)cc4)ncn3C3CCCC3)o2)c1 [Compound 22, ethyl 3-(5-(1-cyclopentyl-4-(4-fluorophenyl)-1H-imidazol-5-yl)furan-2-carboxamido)benzoate]
108 nM	108 nM	127 nM	O=C(Nc1cccc(F)c1)c1ccc(-c2c(-c3ccc(F)cc3)ncn2C2CCCCC2)o1 [Compound 63, 5-(1-cyclohexyl-4-(4-fluorophenyl)-1H-imidazol-5-yl)-N-(3-fluorophenyl)furan-2-carboxamide]
< 10 nM	12 nM	15.2 nM	O=C(Nc1ccccc1Br)c1ccc(-c2c(-c3ccc(F)cc3)ncn2C2CCCC2)o1 [Compound 13, N-(2-bromophenyl)-5-(1-cyclopentyl-4-(4-fluorophenyl)-1H-imidazol-5-yl)furan-2-carboxamide]
480 nM	480 nM	> 1000 nM	CCc1cccc(NC(=O)c2ccc(-c3c(-c4ccc(F)cc4)ncn3C3CCCC3)o2)c1 [Compound 39, 5-(1-cyclopentyl-4-(4-fluorophenyl)-1H-imidazol-5-yl)-N-(3-ethylphenyl)furan-2-carboxamide]
	1340 nM	3070 nM	O=C(Nc1c(O)cncc1F)c1ccc(-c2c(-c3ccc(F)cc3)ncn2C2COCC2F)o1 (stereo not drawn) [Compound A-56, N-(3-fluoro-5-hydroxypyridin-4-yl)-S-(4-(4-fluorophenyl)-1-(4-fluorotetrahydrofuran-3-yl)-1H-imidazol-5-yl)furan-2-carboxamide]
136 nM	136 nM	129 nM	Cc1cccc(NC(=O)c2ccc(-c3c(-c4ccc(F)cc4)ncn3C3CCCC3)o2)c1C [Compound 20, 5-(1-cyclopentyl-4-(4-fluorophenyl)-1H-imidazol-5-yl)-N-(2,3-dimethylphenyl)furan-2-carboxamide]
	317 nM	> 1000 nM	O=C(Nc1c(O)cncc1F)c1ccc(-c2c(-c3ccc(F)cc3)ncn2C2COCC2(F)F)o1 (centres unmarked) [Compound A-41, 5-(1-(4,4-difluorotetrahydrofuran-3-yl)-4-(4-fluorophenyl)-1H-imidazol-5-yl)-N-(3-fluoro-5-hydroxypyridin-4-yl)furan-2-carboxamide]
152 nM	152 nM	320 nM	Cc1ccccc1NC(=O)c1ccc(-c2c(-c3ccc(F)cc3)ncn2C2CCCCC2)o1 [Compound 65, 5-(1-cyclohexyl-4-(4-fluorophenyl)-1H-imidazol-5-yl)-N-(o-tolyl)furan-2-carboxamide]
99 nM	99 nM	195 nM	O=C(Nc1ccc(Cl)cc1)c1ccc(-c2c(-c3ccc(F)cc3)ncn2C2CCCCC2)o1 [Compound 56, N-(4-chlorophenyl)-5-(1-cyclohexyl-4-(4-fluorophenyl)-1H-imidazol-5-yl)furan-2-carboxamide]
2410 nM	2410 nM	> 1000 nM	COc1ccc(NC(=O)c2ccc(-c3c(-c4ccc(C)cc4)ncn3C3CCCCC3)o2)cc1 [Compound 5, 5-(1-cyclohexyl-4-(p-tolyl)-1H-imidazol-5-yl)-N-(4-methoxyphenyl)furan-2-carboxamide]
8450 nM	8450 nM	12400 nM	O=C(Nc1ccccc1F)c1ccc(-c2c(-c3ccc(F)cc3)ncn2CC2CCCN2)o1 (centres unmarked) [Compound 88, N-(2-fluorophenyl)-5-(4-(4-fluorophenyl)-1-(pyrrolidin-2-ylmethyl)-1H-imidazol-5-yl)furan-2-carboxamide]
< 10 nM	15.2 nM	10.9 nM	O=C(Nc1ccccc1Cl)c1ccc(-c2c(-c3ccc(F)cc3)ncn2C2CCCC2)o1 [Compound 14, N-(2-chlorophenyl)-5-(1-cyclopentyl-4-(4-fluorophenyl)-1H-imidazol-5-yl)furan-2-carboxamide]
